pEC50, pIC50: −log10 of the molar value. Like-named read-outs stand apart in the source and are kept apart here.
How the values were obtained:
[1] = test system: Abeta in extract of post-mortem human AD brain tissue; assay: BAS: human brain amyloid solubilization assay; type: biochemical; details: for BAS concentration or concentration range at which an effect is observed: units printed in each cell
Method: Assay 5. Human Brain Amyloid Solubilization Assay
This assay was performed in order to assess the ability of a test compound to mobilise Aβ, as an example form of amyloid, from the insoluble to the soluble phase of an extract of tissue from post mortem human AD brain.
Up to 0.5 g of plaque-bearing cortex without meninges was homogenized using a DIAX 900 homogenizer (Hendolph and Co, Kelheim, Germany) or other suitable device for three 30-second periods at full speed in 2 ml of ice-cold phosphate-buffered saline, pH 7.4. To obtain the phosphate-buffered saline-extractable fraction, the homogenate was centrifuged at 100,000×g for 30 min and the supernatant removed. Alternatively, the tissue was freeze dried then pulverized to form a powder which was then weighed out into aliquots for extraction as above. Supernatant, either freeze-dried and resuspended or in unconcentrated form, was dissolved in 200 μl of Tris-Tricine sodium dodecyl sulfate (SDS) sample buffer pH 8.3 containing 8% SDS, 10% 2-mercaptoethanol. Aliquots (10 μl) were then boiled for 10 minutes before SDS-polyacrylamide gel electrophoresis. The insoluble fraction of the cortical samples was obtained by resuspending the initial pelleted sample in 1 ml of phosphate-buffered saline, A 50-μl aliquot of this suspension was then boiled in […] of sample buffer as above.
Tris-Tricine polyacrylamide gel electrophoresis was performed by loading appropriately diluted samples on to 10% to 20% gradient gels (Novex, San Diego, Calif.) followed by transfer on to 0.2-μm nitrocellulose membrane (Bio-Rad, Hercules, Calif.). Aβ was detected by using monoclonal antibody W02, which detects residues 5 through 8, […] (or another suitable antibody) in conjunction with horseradish peroxidase-conjugated rabbit anti-mouse IgG (Dako, Denmark), and visualized by using enhanced chemiluminescence (eg ECL; Amersham Life Science, Buckinghamshire, UK). Each gel included three lanes containing 0.5, 1, and 2 ng of synthetic Aβ40 (Keck Laboratory, Yale University, New Haven, Conn.) as reference standards.
Blot films were scanned by using a suitable imaging system such as the UVP gel documentation system, and densitometry performed using suitable software, eg UVP Labworks. The dynamic range of the film/scanner was determined by using a step tablet (No. 911ST600, Kodak, Rochester N.Y.), a calibrated film exposed by the manufacturer to provided steps of known increasing intensity. The quantifiable range of signal intensity for densitometric analysis of the mono- and dimeric Aβ bands was based on the comparison with a curve obtained by scanning and densitometry of the step tablet.
All samples were analyzed at least twice, and gel loadings and dilutions were adjusted to fit within the quantifiable region of the standard curve. The proportion of ‘soluble’ to ‘insoluble’ Aβ may be used to determine the efficiency of extraction of a test compound compared with the efficiency of a known compound. The insoluble Aβ being comprised of the pelletable fraction derived from the insoluble amyloid plaque from the above cortical samples and the soluble fraction comprising monomeric and/or oligomeric soluble Aβ.

[2] = test system: primary cortical neuronal cultured cells; assay: Test compound cytotoxicity, MTS assay, primary cortical neuronal cultures; type: cell-based, mouse; details: for Cytotox (% viable) Neuronal cells at 1 μM: 1 μM test compound; for Cytotox (% viable) Neuronal cells at 10 μM: 10 μM test compound
Procedure, shortened: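 Primary cortical neurons were cultured five days in Neurobasal/B27, then exposed on day six to compounds (from 2.5 mM DMSO stocks) in medium minus antioxidants, in triplicate for 4 days at 37° C. Viability was measured by MTS, 2 h at 37° C, absorbance at 560 nm.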

[3] = biological target: T1, Abeta:Zn (25:50 μM) Synthetic Aggregations (Homo sapiens, UniProt P05067); assay: Disaggregation of Abeta:Zn synthetic aggregates (ThT fluorescence); type: biochemical; details: for Disaggregation % Aggregate reduction at 5 μM: 5 μM test compound
T1 construct: PB Compound Mediated Dissolution of Aggregated Abeta 1-42; purchased Keck Laboratory, Yale University School of Medicine
T1 sequence (P05067 672-713 limits assumed): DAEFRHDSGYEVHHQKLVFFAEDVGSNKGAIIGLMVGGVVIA
Method: PB Compound Mediated Dissolution of Aggregated Abeta 1-42
Abeta1-42, is available from the Keck Laboratory, Yale University School of Medicine. PBS (pH 6.6): Sigma Cat# D-8662. Zn(ZnCl2): BDH Cat#100884E. (Dissolved in water in 1 mM concentration) DMSO: Ajax Cat#2225. Thioflavin T: Sigma Cat# T-3516. (Dissolved in water in 1 mM concentration)
By way of example of an amyloid composition, Abeta is dissolved in distilled water and peptide concentration is assessed by measured absorption at 214 nm in UV spectrometer. An aggregation reactive mixture (per one concentration of one testing compound) is set us as follows: Abeta: 25 μM, ZnCl2 50 μM, ThT 50 μM, PBS to make up to 500 μl. The tube is wrapped with foil and incubated at 37 degrees by rotation for 24 hours. A serial dilution of each test compound is made up in DMSO, for example: 100 μM, 500 μM, 1000 μM, 2500 μM and 5000 μM. The final concentrations are 1, 5, 10, 25 and 50 μM, 5 μl of each of these compounds is placed in a centrifuge tube and 5 μl of DMSO is added to both negative and positive control tubes. 495 μl of aggregates (after 24 hours incubation) is added to the centrifuge tube. The negative control is PBS plus ZnCl2 and ThT and DMSO. The positive control is aggregates plus DMSO. The tubes are incubated at 37 degrees for further 2 hours with rotation. Samples are measured for ThT fluorescence using an LS55 (Perkin Elmer) fluorimeter in a cuvette (500 μl volume). The excitation wavelength is 450 nm and the emission wavelength is 480 nm. Data are analyzed using graph pad prism program. The tested compounds included so called “PB” compounds.

Aβ 1-42 = biological target: T2, Aβ 1-42 (Homo sapiens, UniProt P05067); assay: Fluorometric H2O2 assay (inhibition of Abeta H2O2 production); type: biochemical
T2 construct: The reaction solutions contained Aβ 1-42 at concentrations
T2 sequence (P05067 672-713 limits assumed): as above
Procedure, shortened: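 Copper-dependent Aβ H2O2 production measured fluorometrically with deacetylated dichlorofluorescein plus HRP in PBS, pH 7.4. Incubation 60 min at 37 C, test compound included in wells. H2O2 quantified against H2O2 standards.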

[4] = max effect across the concentration range, referenced to baseline PBS
[5] = concentration required to inhibit 50% of Abeta H2O2 production, read-out: H2O2 IC50

Structure (SMILES) | BAS max effect [1] | Cytotox (% viable) Neuronal cells at 1 μM [2] | Cytotox (% viable) Neuronal cells at 10 μM [2] | Disaggregation EC50 ([3]; Abeta:Zn 25:50 μM aggregates) | pIC50 (Aβ 1-42) | BAS max effect [1, 4] [%] | Disaggregation % Aggregate reduction at 5 μM [3] [%] | pEC50 ([3]; Abeta:Zn 25:50 μM aggregates) | pIC50 (Aβ 1-42; [5]) | BAS concentration or concentration range at which an effect is observed [1]
Oc1cccc2cccnc12 [PB 42] | BAS: 227% (1 μM- 100 μM) | 93% | 36% | Inactive | 6.15 | – | – | – | – | –
Oc1c(Cl)cc(Cl)c2cccnc12 [PB 45] | – | 98% | 75% | – | – | 387 | 36.1 | 5.07 | 6.40 | –
Oc1c(Br)cc(Br)c2cccnc12 [PB 47] | – | 100% | 94% | – | – | 412 | 50 | 5.30 | 6.30 | –
Cc1ccccc1-c1cc(I)c(O)c2ncccc12 [PB 861] | – | 99% | 38% | – | – | 439 | 31.4 | – | > 6.04 | –
Cc1ccc(-c2ccc(C)cn2)nc1 [PB 896] | – | – | Neuronal cells: 86% (at 10 uM) | – | – | 358 | – | – | 6.82 | –
FC(F)(F)CSc1cccc2cccnc12 [PB 913] | – | 100% | 95% | – | – | 450 | – | – | 6.00 | –
CN1CCCN(C)CCN(C)CCCN(C)CC1 [PB 933] | – | – | Neuronal cells: 127% (at 10 μM) | – | – | 279 | – | – | 6.96 | –
Oc1ccccc1-c1cc(Cl)c2cccnc2c1O [PB 947] | – | 100% | 70% | – | – | 244 | – | – | 5.94 | –
O=C(NCCc1cnc[nH]1)c1ccc2cccc(O)c2n1 [PB 948] | – | 100, 100% | 100, 100% | – | – | 576 | – | – | 6.82 | –
O=C(NCc1ccccn1)c1ccc2cccc(O)c2n1 [PB 949] | – | 96% | 85% | – | – | 201 | – | – | 6.37 | –
O=C(NCCc1ccccn1)c1ccc2cccc(O)c2n1 [PB 950] | – | 95% | 93% | – | – | 741 | – | – | 6.82 | –
O=C(Nc1nccs1)c1ccc2cccc(O)c2n1 [PB 952] | – | Neuronal cells: 100, 100% | Neuronal cells: 100, 100% | – | – | 268 | – | – | 6.57 | –
Cc1cnc(NC(=O)c2ccc3cccc(O)c3n2)s1 [PB 953] | – | 94% | 68% | – | – | 325 | – | – | > 6.38 | –
O=C(NCCc1cnc[nH]1)c1cc(O)c2cccc(O)c2n1 [PB 954] | – | Neuronal cells: 100, 100% | Neuronal cells: 100, 100% | – | – | 134 | – | – | 6.92 | 1 µM
NCCNC(=O)c1ccc2cccc(O)c2n1 [PB 957] | – | 106% | 96% | – | – | 190 | – | – | < 5.00 | 1 μM, 100 μM
NCc1ccc2cccc(O)c2n1 [PB 968] | – | 101% | 97% | – | – | 390 | 31.6 | 4.79 | 6.59 | –
O/N=C/c1ccc2cccc(O)c2n1 [PB 969] | – | 100% | 95% | – | – | 385 | – | – | 6.27 | –
O=C(CNC(=O)c1cc(O)c2cccc(O)c2n1)NCCc1c[nH]cn1 [PB 987] | – | 98% | 89% | – | – | 393 | – | – | 5.74 | –
O=C(CNC(=O)c1cc(O)c2cccc(O)c2n1)NCc1ccccn1 [PB 988] | – | Neuronal cells: 93, 93% | Neuronal cells: 93, 93% | – | – | 137 | – | – | < 5.00 | –
CN(CCc1ccccn1)Cc1ccc2cccc(O)c2n1 [PB 990] | – | 97% | 57% | – | – | 183 | – | – | 6.40 | –
Oc1cccc2ccc(CNCc3ccccn3)nc12 [PB 991] | – | 96% | 67% | – | – | 222 | – | – | 6.33 | –
Oc1cccc2ccc(-c3ccccn3)nc12 [PB 1006] | – | 107% | 75% | – | – | 463 | 49.5 | 5.28 | 6.28 | –
